The source made the active and inactive calls. For most assays here, no stated cut-off is given here; in the data, actives have a measured EC50 and inactives only a lower limit.
Key:
Cytochrome P450 2C9 = Cytochrome P450 2C9 (Homo sapiens, UniProt P11712)
[1] = system: Streptococcus sp. 'group A'; assay: Streptococcus pyogenes SK(-)GAS viability under kanamycin – luminescence, BacTiterGlo, confirmation, counter-screen for streptokinase expression inhibitor project, dose response (AID 1900); type: functional, organism-based
Streptokinase A = target: T1, Streptokinase A (Streptococcus pyogenes serotype M1, UniProt P10520); assay: viability-normalized secreted streptokinase activity reduction – plasminogen activation absorbance, OD405, dose response (AID 1914); type: functional, Streptococcus pyogenes M1 GAS;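 further: secreted streptokinase activity via plasminogen activation per viability signal from cell pellet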
T1 sequence (P10520 whole entry): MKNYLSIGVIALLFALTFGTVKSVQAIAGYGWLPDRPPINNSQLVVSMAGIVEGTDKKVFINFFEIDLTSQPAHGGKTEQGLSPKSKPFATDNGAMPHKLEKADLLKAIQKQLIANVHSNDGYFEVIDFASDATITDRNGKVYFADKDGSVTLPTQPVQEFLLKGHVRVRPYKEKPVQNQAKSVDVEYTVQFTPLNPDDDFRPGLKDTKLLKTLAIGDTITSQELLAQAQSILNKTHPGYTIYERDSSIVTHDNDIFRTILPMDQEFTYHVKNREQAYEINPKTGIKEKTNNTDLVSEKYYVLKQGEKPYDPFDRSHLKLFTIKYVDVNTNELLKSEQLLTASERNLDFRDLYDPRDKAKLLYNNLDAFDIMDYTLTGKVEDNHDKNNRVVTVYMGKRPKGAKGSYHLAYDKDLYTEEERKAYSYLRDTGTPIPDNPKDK

Streptococcus = assay: GAS UMAA2166 growth inhibition – luminescence, BacTiterGlo, counter-screen for streptokinase expression inhibitor project, dose response (AID 1915); type: functional, organism-based;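 further: potency for reduction of bacterial viability or growth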
[2] = fluconazole-exposed Candida albicans growth modulators – fluorescence, retest, confirmation (AID 2467); type: functional, cell-based
[3] = NIH-3T3 fibroblast cytotoxicity, dose response, cytotoxicity control, cell-based, fluorescence, Alamar Blue, secondary assay (AID 2327); type: functional;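 further: NIH-3T3 mouse fibroblasts cultured with fluconazole at 8 µg/mL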
INS1 = assay: INS-1E survival protection against cytokine death – cell-based, luminescence, retest, dose response (AID 449756); type: functional; conditions: Rattus norvegicus;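 further: cell death triggered by IL-1 beta plus TNF-alpha plus IFN-gamma mixture; protective hits raise ATP signal compared with cytokine alone wells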
[4] = NIH3T3 cell viability loss – ATP luminescence, mouse fibroblasts, counter-screen, dose response (AID 2010); type: functional, cell-based;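 further: cells exposed to compound for about 90 hours before reading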
[5] = Trypanosoma cruzi growth suppression in host cells – NIH3T3 host cells, beta-gal luminescence, confirmation (AID 2044); type: functional, cell-based;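 further: intracellular parasites grown in NIH/3T3 mouse fibroblasts as host cells; luminescent beta-galactosidase reporter signal from transgenic T. cruzi replicating inside host cells; inhibitors lower the luminescence signal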
[6] = Luminescence Cell-Based Dose Retest to Confirm Inhibitors of Cancer Stem Cells. [Related pubchem assays (depositor defined):AID2717, AID2721]; type: functional; conditions: Homo sapiens
[7] = target: T2, Corticotropin-releasing factor receptor 2/Corticotropin-releasing factor-binding protein (Homo sapiens, UniProt P24387+Q13324); assay: activators of CRF receptor 2 with binding protein – uHTS hits, confirmation (AID 602473); type: functional; conditions: read-out: EC50_Mean
T2 sequence (Q13324 whole entry): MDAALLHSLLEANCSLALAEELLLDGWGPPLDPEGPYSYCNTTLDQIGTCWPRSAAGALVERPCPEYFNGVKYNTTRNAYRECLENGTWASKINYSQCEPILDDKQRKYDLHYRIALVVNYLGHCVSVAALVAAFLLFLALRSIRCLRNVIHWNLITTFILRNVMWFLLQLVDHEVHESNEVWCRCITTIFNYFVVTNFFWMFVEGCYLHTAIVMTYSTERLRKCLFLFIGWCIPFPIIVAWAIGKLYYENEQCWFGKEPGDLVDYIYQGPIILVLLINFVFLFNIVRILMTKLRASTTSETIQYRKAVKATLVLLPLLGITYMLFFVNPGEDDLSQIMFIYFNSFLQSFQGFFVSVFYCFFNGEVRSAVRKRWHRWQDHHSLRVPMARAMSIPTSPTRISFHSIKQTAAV
T2 sequence (P24387 whole entry): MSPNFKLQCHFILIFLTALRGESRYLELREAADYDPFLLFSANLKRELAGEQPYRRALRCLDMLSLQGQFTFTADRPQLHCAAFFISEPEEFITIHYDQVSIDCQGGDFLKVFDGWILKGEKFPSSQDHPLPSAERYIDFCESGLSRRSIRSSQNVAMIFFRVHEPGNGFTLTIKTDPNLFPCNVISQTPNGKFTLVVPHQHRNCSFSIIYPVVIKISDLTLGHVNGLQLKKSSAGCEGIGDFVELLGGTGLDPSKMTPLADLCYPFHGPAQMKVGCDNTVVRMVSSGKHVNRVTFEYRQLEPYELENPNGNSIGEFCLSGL

Sequence of Cytochrome P450 2C9 (P11712 whole entry): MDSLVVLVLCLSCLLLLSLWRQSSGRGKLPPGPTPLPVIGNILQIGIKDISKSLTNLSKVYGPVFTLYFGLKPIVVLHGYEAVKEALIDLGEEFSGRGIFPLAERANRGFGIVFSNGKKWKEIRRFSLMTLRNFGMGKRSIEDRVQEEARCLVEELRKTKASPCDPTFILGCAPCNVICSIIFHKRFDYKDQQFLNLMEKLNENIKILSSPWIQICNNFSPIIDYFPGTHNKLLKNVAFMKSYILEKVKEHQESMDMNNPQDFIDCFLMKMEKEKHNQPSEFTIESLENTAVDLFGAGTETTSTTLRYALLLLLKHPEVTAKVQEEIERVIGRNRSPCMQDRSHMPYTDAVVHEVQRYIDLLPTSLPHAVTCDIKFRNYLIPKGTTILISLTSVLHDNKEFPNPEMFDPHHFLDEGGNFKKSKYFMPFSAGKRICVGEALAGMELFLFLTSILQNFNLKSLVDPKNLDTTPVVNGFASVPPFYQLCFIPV

COc1ccc2c(c1)c(CC(=O)O)c(C)n2Cc1ccc(Cl)cc1
AC50 (Cytochrome P450 2C9): 12.6 µM (inconclusive)

CC(C)CCOc1ccc(NC(=O)C2OC3OC(C)(C)OC3C3OC(C)(C)OC23)cc1 (configuration not stated)
AC50 (Cytochrome P450 2C9): 25.1 µM (inconclusive)

CC1(C)S[C@@H]2[C@H](NC(=O)COc3ccccc3)C(=O)N2C1C(=O)OCc1ccccc1 (some centres not stated)
EC50 [1]: 1.42 µM (active)
EC50 (Streptokinase A): > 150 µM (not active)
EC50 (Streptococcus): 2.56 µM (active)

Cc1cccc(NC(=O)NNC(=O)c2cc3ccccc3cc2O)c1C
EC50 [2]: > 38 µM (not active)
EC50 [3]: 80.6 µM (active)

CC(=O)c1ccccc1OCCOCCOc1ccccc1C(C)=O
AC50 (INS1): 31.1 µM (active)

COc1ccc(CN(C)CC(=O)c2c(N)n(Cc3ccccc3)c(=O)n(C)c2=O)c(OC)c1
EC50 [4]: > 60 µM (not active)
EC50 [5]: 2.78 µM (active)

COc1cc(OC)c(NC(S)=NCc2ccccc2)cc1Cl
EC50 [2]: > 38 µM (not active)
EC50 [3]: > 160 µM (inactive)

COc1ccc(/C=C/C2=CCN(Cc3ccc(OC)cc3)CC2)cc1
EC50 [4]: > 60 µM (not active)
EC50 [5]: 3.17 µM (active)

CSc1ccc(/C=C/c2ccc3cccc(O)c3n2)cc1
EC50 [1]: 0.693 µM (active)
EC50 (Streptococcus): 14 µM (active)

Cc1ccc(-n2c(N)c(-c3nc4ccccc4n3C)sc2=S)cc1
EC50 [1]: 39.6 µM (active)
EC50 (Streptokinase A): > 150 µM (not active)
EC50 (Streptococcus): > 150 µM (not active)

Cc1ccc2nc(N=C(NS(=O)(=O)c3ccc(F)cc3)c3ccccc3)sc2c1
EC50 [1]: 5.01 µM (active)
EC50 (Streptokinase A): > 50 µM (not active)
EC50 (Streptococcus): 10 µM (active)

CSc1cnc2c(N)nc(N(C)C)nc2n1
EC50 [2]: 2.63 µM (active)
EC50 [3]: > 160 µM (inconclusive)

CC(=O)c1c(O)cc(=O)n(-c2ccccc2)c1-c1cccc2ccccc12
AC50 (Cytochrome P450 2C9): 22.4 µM (inconclusive)

COc1cc(OC)c(C=O)c(OC(=O)N2CCOCC2)c1
AC50 [6]: > 195 µM (inactive)

O=C(c1ccc(O)cc1)c1ccc(C(=O)c2ccc(O)cc2)cc1
EC50 [1]: 2.84 µM (active)
EC50 (Streptokinase A): > 150 µM (not active)
EC50 (Streptococcus): 31.4 µM (active)

CCn1cc(C(=O)N[C@H](C)c2ccccc2)c(=O)c2cc(F)c(N3CCN(C)CC3)cc21
AC50 [6]: 0.796 µM (active)

CN1CCc2nc(SCc3ccc(C(C)(C)C)cc3)c(C#N)cc2C1
EC50 [4]: 19 µM (active)
EC50 [5]: 0.465 µM (active)

COc1ccccc1CNc1nc(-c2ccc(N(C)C)cc2)nc2ccccc12
AC50 (Cytochrome P450 2C9): 0.794 µM (inconclusive)

CC1(C)C=Cc2c(c3c(c4c(=O)c(-c5ccc(O)cc5)coc24)OC(C)(C)CC3)O1
AC50 [6]: 6.61 µM (active)

Cc1ccccc1CN(C)CC(=O)Nc1ccccc1-c1ccccc1
EC50 [1]: 7.65 µM (active)
EC50 (Streptokinase A): 23.3 µM (active)
EC50 (Streptococcus): > 150 µM (not active)

CC(=O)c1ccc(-c2cc([C@H]3[C@H]4C=CC[C@@H](C)[C@@H]4C(=O)N3Cc3ccccc3)ccc2F)cc1
AC50 [6]: 5.46 µM (active)

O=C(CSc1nnc(CNC(=O)c2ccccc2)o1)NCc1ccccc1
EC50 [1]: > 150 µM (not active)
EC50 (Streptokinase A): > 150 µM (not active)
EC50 (Streptococcus): > 150 µM (not active)

COc1ccc(C(=O)N2CCc3c([nH]c4ccccc34)C2C(F)(F)F)cc1 (configuration not stated)
EC50 [1]: > 150 µM (not active)
EC50 (Streptokinase A): > 150 µM (not active)
EC50 (Streptococcus): > 150 µM (not active)

COc1cc(OC)cc(C(=O)Nc2cccc(N3CCCC3)c2)c1
EC50 [4]: > 30 µM (not active)
EC50 [5]: 3.33 µM (active)

CC1(C)CC(=O)C2=C(C1)OC1=C(C(=O)CC(C)(C)C1)C2c1cc([N+](=O)[O-])cc([N+](=O)[O-])c1O
EC50 [2]: 0.221 µM (active)
EC50 [3]: > 160 µM (inactive)

Cn1c(=S)c2nc(SCc3cccnc3)[nH]c2n(C)c1=O
AC50 (Cytochrome P450 2C9): 6.31 µM (inconclusive)

CN1CCN(CCOc2ccc(Cl)c(Cl)c2)CC1
EC50 [4]: > 60 µM (not active)
EC50 [5]: 0.516 µM (active)

CC(C)Cc1ccc(C(C)C(=O)Nc2ccc(O)cc2)cc1 (configuration not stated)
EC50 [7]: 3.77 µM (active)

COc1cc2cc(C(=O)N3CCOCC3)cc(-c3ccc(C)cc3)c2cc1OC
AC50 (INS1): 6.42 µM (active)

CCCOc1ccc(NCC(=O)Nc2ccc(C)cc2C)cc1
EC50 [4]: > 60 µM (not active)
EC50 [5]: 3.07 µM (active)

Cc1ccc(NC(=S)N(CCCN2CCCC2)Cc2cccn2Cc2ccc(Cl)cc2)cc1Cl
AC50 [6]: 5.36 µM (active)

COc1ccc(CCC(C)NCC2CCCCC2)cc1 (configuration not stated)
AC50 [6]: 5.09 µM (active)

COc1ccc(S(=O)(=O)N2CCCCCC2)cc1N(C)S(=O)(=O)c1ccc(Cl)cc1
EC50 [4]: > 60 µM (not active)
EC50 [5]: 2.21 µM (active)

CC(C)(C)c1cc(C(=O)NNc2cccc(Cl)c2)n(Cc2ccccc2)n1
AC50 [6]: 1.34 µM (active)

O=c1c2ccccc2nc(SCCN2CCCCC2)n1CCc1ccccc1
EC50 [4]: > 60 µM (not active)
EC50 [5]: 1.57 µM (active)

COc1ccc(-n2c(=O)c3c4c(sc3n3c(S)nnc23)CCC4)cc1
EC50 [1]: 15.7 µM (active)
EC50 (Streptococcus): 17.4 µM (active)

Cc1ccc(-c2csc(-c3c[nH]c4ccccc34)n2)c(C)c1
AC50 [6]: 2.88 µM (active)
EC50 [1]: 12 µM (active)
EC50 (Streptokinase A): > 150 µM (not active)
EC50 (Streptococcus): 7.96 µM (active)

COc1cnc(-c2ccccn2)nc1Oc1ccc(C(C)(C)C)cc1
EC50 [1]: 12.4 µM (active)
EC50 (Streptokinase A): > 150 µM (not active)
EC50 (Streptococcus): 19.2 µM (active)
AC50 (INS1): 6.45 µM (active)

CN1CCN(CCCOc2ccc(-c3ccccc3)cc2)CC1
EC50 [4]: 7.93 µM (active)
EC50 [5]: 0.988 µM (active)

COc1ccccc1CNC(=O)C(=O)NCC1CCCN1S(=O)(=O)c1cccs1 (configuration not stated)
EC50 [4]: > 60 µM (not active)
EC50 [5]: 2.54 µM (active)

O=C(NCCc1ccccc1F)C1CCCN1S(=O)(=O)c1ccc2ccccc2c1 (configuration not stated)
EC50 [4]: > 60 µM (not active)
EC50 [5]: 1.63 µM (active)

O=[N+]([O-])c1ccc(CP(=O)(c2ccccc2)c2ccccc2)cc1
AC50 [6]: > 195 µM (inactive)

O=C(Nc1cccc(-c2csc(Nc3ccc(Cl)cc3)n2)c1)c1cc([N+](=O)[O-])cc(C(F)(F)F)c1
AC50 [6]: 1.56 µM (active)

Cc1ccc(NS(=O)(=O)c2ccc(NC(=O)c3ccccc3C(=O)O)cc2)c(C)c1
EC50 [4]: > 60 µM (not active)
EC50 [5]: > 60 µM (not active)

Cc1cc2oc(=O)cc(CN3CCN(S(=O)(=O)/C=C/c4ccccc4)CC3)c2cc1C
EC50 [4]: > 60 µM (inconclusive)
EC50 [5]: 2.02 µM (active)

CCN(CC)CCN(C(=O)c1ccc2ccccc2c1)c1nc2ccc(OC)cc2s1
EC50 [2]: > 38 µM (not active)
EC50 [3]: > 160 µM (inactive)

Cc1ccc(-c2cc(-c3ccccc3)nc(N(C)N)n2)cc1
EC50 [1]: 14.6 µM (active)
EC50 (Streptokinase A): > 150 µM (not active)
EC50 (Streptococcus): > 150 µM (not active)

c1ccc(CSc2nnc([C@@H]3CCCN3)o2)cc1
AC50 (Cytochrome P450 2C9): 5.62 µM (inconclusive)

Cc1nc(SCc2nc3cc(C(F)(F)F)ccc3[nH]2)c2oc3ccccc3c2n1
AC50 [6]: 4.11 µM (active)

COc1cc(/C=N/N(c2ccccc2)c2ccccc2)ccc1O
AC50 [6]: 5.16 µM (active)

CCCCc1ccc(N/N=C(\C(C)=O)C(=O)Nc2ccc(NC(C)=O)cc2OC)cc1
AC50 [6]: 3.91 µM (active)

Cc1ccc(-c2nn3c(O)c4c(nc3c2C)CCCC4)cc1
AC50 (Cytochrome P450 2C9): 6.31 µM (inconclusive)

O=C1CN(/N=C/c2ccc([N+](=O)[O-])o2)C(=O)N1 [NITROFURANTOIN]
EC50 [1]: 3.16 µM (active)
EC50 (Streptokinase A): > 150 µM (not active)
EC50 (Streptococcus): 9.83 µM (active)
